Results taken from ChEMBL document CHEMBL1201862, “PubChem BioAssay data set” (2004).
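Growth conditions: 96-well plates. Treatment: test compound, 48 hours, 5 concentrations. Analysis: linear interpolation between bracketing concentrations; unreached endpoints set to highest concentration. GI50 marks 50% less growth.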 Activity calls are given as the source filed them. No stated cut-off is given here; in the data, active = GI50 up to about 1.1 µM and inactive = higher.

Legend:
Assay in all cases: inhibition of tumour cell growth, NCI panel, 48 h
786-0 = tested on: 786-0
A549 = tested on: A549
ACHN = tested on: ACHN
CAKI-1 = tested on: CAKI-1
CCRF-CEM = tested on: CCRF-CEM
COLO 205 = tested on: COLO 205
DLD-1 = tested on: DLD-1
DMS-114 = tested on: DMS-114
DMS-273 = tested on: DMS-273
EKVX = tested on: EKVX
HCC 2998 = tested on: HCC 2998
HCT-116 = tested on: HCT-116
HCT-15 = tested on: HCT-15
HL-60 = tested on: HL-60
HOP-18 = tested on: HOP-18
HOP-62 = tested on: HOP-62
HT-29 = tested on: HT-29
IGROV-1 = tested on: IGROV-1
K562 = tested on: K562
KM-20L2 = tested on: KM-20L2
KM12 = tested on: KM12
LOX IMVI = tested on: LOX IMVI
LXFL 529 = tested on: LXFL 529
M14 = tested on: M14
M19-MEL = tested on: M19-MEL
MOLT-4 = tested on: MOLT-4
Malme-3M = tested on: Malme-3M
NCI-H226 = tested on: NCI-H226
NCI-H23 = tested on: NCI-H23
NCI-H460 = tested on: NCI-H460
NCI-H522 = tested on: NCI-H522
OVCAR-4 = tested on: OVCAR-4
OVCAR-5 = tested on: OVCAR-5
OVCAR-8 = tested on: OVCAR-8
RPMI-8226 = tested on: RPMI-8226
RXF 393 = tested on: RXF 393
SF-268 = tested on: SF-268
SF-295 = tested on: SF-295
SF-539 = tested on: SF-539
SK-MEL-28 = tested on: SK-MEL-28
SK-MEL-2 = tested on: SK-MEL-2
SK-OV-3 = tested on: SK-OV-3
SN12C = tested on: SN12C
SNB-19 = tested on: SNB-19
SNB-75 = tested on: SNB-75
SNB-78 = tested on: SNB-78
SW-620 = tested on: SW-620
TK-10 = tested on: TK-10
U-251 = tested on: U-251
UACC-257 = tested on: UACC-257
UACC-62 = tested on: UACC-62
UO-31 = tested on: UO-31
XF498 = tested on: XF498
A498 = tested on: A498
OVCAR-3 = tested on: OVCAR-3
SK-MEL-5 = tested on: SK-MEL-5

With `CN1C(=O)CCC1c1ccc2c(c1)oc(=O)n2C` (stereo unspecified) the GI50 (786-0) was > 100 µM (inactive), the GI50 (A549) was > 100 µM (inactive) and the GI50 (ACHN) was > 100 µM (inactive). For the same molecule, the GI50 (CAKI-1) was > 100 µM (inactive), the GI50 (CCRF-CEM) was > 100 µM (inactive) and the GI50 (COLO 205) was > 100 µM (inactive). The GI50 (DLD-1) was > 100 µM (inactive), the GI50 (DMS-114) was > 100 µM (inactive) and the GI50 (DMS-273) was > 100 µM (inactive). For the same molecule, the GI50 (EKVX) was > 100 µM (inactive), the GI50 (HCC 2998) was > 100 µM (inactive) and the GI50 (HCT-116) was > 100 µM (inactive). The GI50 (HCT-15) was over 100 µM, the GI50 (HL-60) was > 100 µM (inactive) and the GI50 (HOP-18) was > 100 µM (inactive). The GI50 (HOP-62) was > 100 µM (inactive), the GI50 (HT-29) was > 100 µM (inactive) and the GI50 (IGROV-1) was > 100 µM (inactive). The GI50 (K562) was > 100 µM (inactive), the GI50 (KM-20L2) was > 100 µM (inactive) and the GI50 (KM12) was > 100 µM (inactive). For the same molecule, the GI50 (LOX IMVI) was > 100 µM (inactive), the GI50 (LXFL 529) was > 100 µM (inactive) and the GI50 (M14) was > 100 µM (inactive). The GI50 (M19-MEL) was > 100 µM (inactive), the GI50 (MOLT-4) was > 100 µM (inactive) and the GI50 (Malme-3M) was > 100 µM (inactive). For the same molecule, the GI50 (NCI-H226) was > 100 µM (inactive), the GI50 (NCI-H23) was > 100 µM (inactive) and the GI50 (NCI-H460) was > 100 µM (inactive). The GI50 (NCI-H522) was > 100 µM (inactive), the GI50 (OVCAR-4) was > 100 µM (inactive) and the GI50 (OVCAR-5) was > 100 µM (inactive). The GI50 (OVCAR-8) was > 100 µM (inactive), the GI50 (RPMI-8226) was > 100 µM (inactive) and the GI50 (RXF 393) was > 100 µM (inactive). For the same molecule, the GI50 (SF-268) was > 100 µM (inactive), the GI50 (SF-295) was > 100 µM (inactive) and the GI50 (SF-539) was > 100 µM (inactive). The GI50 (SK-MEL-28) was > 100 µM (inactive), the GI50 (SK-MEL-2) was > 100 µM (inactive) and the GI50 (SK-OV-3) was > 100 µM (inactive). The GI50 (SN12C) was > 100 µM (inactive), the GI50 (SNB-19) was > 100 µM (inactive) and the GI50 (SNB-75) was > 100 µM (inactive). For the same molecule, the GI50 (SNB-78) was > 100 µM (inactive), the GI50 (SW-620) was > 100 µM (inactive) and the GI50 (TK-10) was > 100 µM (inactive). For the same molecule, the GI50 (U-251) was > 100 µM (inactive), the GI50 (UACC-257) was > 100 µM (inactive) and the GI50 (UACC-62) was > 100 µM (inactive). For the same molecule, the GI50 (UO-31) was > 100 µM (inactive) and the GI50 (XF498) was > 100 µM (inactive).
For `C[N+](C)(C)CCC(=O)CC[N+](C)(C)C`, the GI50 (786-0) was 18.9 µM (inactive), the GI50 (A498) was 70.5 µM (inactive) and the GI50 (A549) was > 100 µM (inactive). For the same molecule, the GI50 (ACHN) was 17 µM (inactive), the GI50 (CAKI-1) was 15.7 µM (inactive) and the GI50 (CCRF-CEM) was 2.49 µM (inactive). The GI50 (COLO 205) was 16.4 µM (inactive), the GI50 (DLD-1) was 16.2 µM (inactive) and the GI50 (DMS-114) was 20.8 µM (inactive). For the same molecule, the GI50 (DMS-273) was 25.6 µM (inactive), the GI50 (EKVX) was 55.3 µM (inactive) and the GI50 (HCC 2998) was 16.2 µM (inactive). The GI50 (HCT-116) was 18.4 µM (inactive), the GI50 (HCT-15) was 19.2 µM and the GI50 (HL-60) was 4.09 µM (inactive). The GI50 (HOP-18) was 17.1 µM (inactive), the GI50 (HOP-62) was > 100 µM (inactive) and the GI50 (HT-29) was 13.5 µM (inactive). The GI50 (IGROV-1) was 87.3 µM (inactive), the GI50 (K562) was 6.68 µM (inactive) and the GI50 (KM-20L2) was 25.5 µM (inactive). For the same molecule, the GI50 (KM12) was 20 µM (inactive), the GI50 (LXFL 529) was 16.1 µM (inactive) and the GI50 (M14) was 18.3 µM (inactive). For the same molecule, the GI50 (M19-MEL) was 23.5 µM (inactive), the GI50 (MOLT-4) was 4.14 µM (inactive) and the GI50 (Malme-3M) was 19.7 µM (inactive). The GI50 (NCI-H23) was 24.5 µM (inactive), the GI50 (NCI-H460) was 28.2 µM (inactive) and the GI50 (NCI-H522) was 15.4 µM (inactive). The GI50 (OVCAR-3) was 18.6 µM (inactive), the GI50 (OVCAR-4) was 17.7 µM (inactive) and the GI50 (OVCAR-8) was 19.8 µM (inactive). For the same molecule, the GI50 (RPMI-8226) was 4.68 µM (inactive), the GI50 (RXF 393) was 21.3 µM (inactive) and the GI50 (SF-268) was 22.1 µM (inactive). For the same molecule, the GI50 (SF-295) was 18.7 µM (inactive), the GI50 (SF-539) was 19.8 µM (inactive) and the GI50 (SK-MEL-28) was 21.6 µM (inactive). The GI50 (SK-MEL-2) was 21.5 µM (inactive), the GI50 (SK-MEL-5) was 35.3 µM (inactive) and the GI50 (SK-OV-3) was > 100 µM (inactive). For the same molecule, the GI50 (SN12C) was > 10 µM (inactive), the GI50 (SNB-19) was > 100 µM (inactive) and the GI50 (SNB-75) was 19.9 µM (inactive). For the same molecule, the GI50 (SNB-78) was 22.3 µM (inactive), the GI50 (SW-620) was 16.1 µM (inactive) and the GI50 (TK-10) was 17 µM (inactive). For the same molecule, the GI50 (U-251) was > 100 µM (inactive), the GI50 (UACC-257) was 17.6 µM (inactive) and the GI50 (UACC-62) was 21.5 µM (inactive). The GI50 (UO-31) was 92 µM (inactive) and the GI50 (XF498) was 21.2 µM (inactive).
